Reference: patent publication US20090155339A1, “Biocompatible Antimicrobial Filament Material” (AESCULAP AG & CO. KG, priority 2005, published 2009)

Tested on: L929 cells (DSM ACC2, mouse fibroblasts)
Assay: Cytotoxicity of PHMB-HCl coated thread extracts, growth inhibition (BCA Assay method)
Type: cell-based
Conditions: positive control 7.5% v/v DMSO, 72 h
Method: The test was carried out in accordance with the standard EN ISO/IEC 17025. The thread pieces were extracted in the absence of light with the DMEM-FBS cell culture medium at 37±2° C. for 7 days. The absorbed DMEM-FBS was made up to a volume such that the surface/volume ratio was 9 cm^2/ml. As a negative control, DMEM-FBS was incubated at 37±2° C. for 7 days without test material. 7.5% v/v DMSO was used as positive control. Extracts and negative controls were diluted in five steps with DMEM-FBS solution (dilution ratio 2:3). 100 μl of the dilute solutions of the extracts and of the negative controls and also 100 μl of the positive controls were added in triplicate to wells in a […]. Thereafter, 50 μl of a freshly prepared cell suspension (7.5×10^4 cells/ml) were added to all wells except those used for background determination. The final concentrations of the extracts were accordingly 66.7%, 44.5%, 29.6%, 19.8%, 13.2% and 8.8% v/v. The plates were then incubated at 37±2° C. in humidified air (5% CO2/95% air) for 72±2 hours. Thereafter, the protein content of the samples was determined calorimetrically at a wavelength of 550 nm (BCA Assay method). The test organisms used were L929 cells (DSM ACC2, mouse fibroblasts, clone of the L strand). […] FBS and P/S from Biochrom (Berlin) and BCA protein quantification kit from Interchim (France).

## C[S+](C)[O-] [Positive control, DMSO]
  Growth inhibition: 81%
